In ChEMBL document CHEMBL4330144, “A mitochondria-targeted organic arsenical accelerates mitochondrial metabolic disorder and function injury” (Bioorg Med Chem, 2019):
Active and inactive are the calls of the source. No cut-off for these calls is given here.

Columns and labels:
NB-4 [1] = assay: Induction of apoptosis in human NB4 cells assessed as live cells after 24 hrs in presence of Z-VAD-fmk by Annexin V-FITC/propidium iodide staining based flow cytometry (reference value: 92%); type: functional
NB-4 [2] = assay: Induction of decrease in intracellular total thiols level in human NB4 cells up to 1.2 uM up to 24 hrs; type: functional, cell-based
NB-4 [3] = assay: Induction of apoptosis in human NB4 cells assessed as necrotic cells after 24 hrs in presence of Z-VAD-fmk by Annexin V-FITC/propidium iodide staining based flow cytometry (reference value: 0.1%); type: functional
MCF7 = assay: Cytotoxicity against human MCF7 cells after 48 hrs by MTT assay; type: functional, cell-based; settings: MCF7, 48 h
SGC-7901 = assay: Cytotoxicity against human SGC7901 cells after 24 hrs by MTT assay; type: functional, cell-based; settings: SGC-7901, 24 h
Rattus norvegicus [4] = species: Rattus norvegicus; assay: Induction of mitochondrial membrane potential loss in isolated Wistar rat mitochondria assessed as activity recovery phase rate constant at 25 uM using pyruvate as substrate up to 3 hrs by microcalorimetry (reference value: 5.15 to 7.33 10^-3/min); type: functional
Rattus norvegicus [5] = species: Rattus norvegicus; assay: Induction of mitochondrial swelling in isolated Wistar rat mitochondria at 30 uM in presence of ruthenium red; type: functional
NB-4 [6] = assay: Induction of apoptosis in human NB4 cells assessed as necrotic cells after 24 hrs by Annexin V-FITC/propidium iodide staining based flow cytometry (reference value: 0.1%); type: functional

With O=C(CC[P+](c1ccccc1)(c1ccccc1)c1ccccc1)Nc1ccc([As]2SCCCS2)cc1.[Cl-] the Activity (NB-4 [1]) was 81.9%, the Activity (NB-4 [2]) was “Active” and the Activity (NB-4 [3]) was 0.2%. It also gave an IC50 (MCF7) of 1.46 µM, an IC50 (SGC-7901) of 4.63 µM and a K (Rattus norvegicus [4]) of 3.82 ×10⁻³ /min. The Activity (Rattus norvegicus [5]) was “inactive” and the Activity (NB-4 [6]) was 1.4%.
